The nature of data set [1]: Metabolic stability in human liver microsomes. Type of data set: in vitro ADME. How it is done: A 5-point metabolic stability assay in human and mouse liver microsomes were performed in duplicate in 96-well plates. Stock solution of RMB005, −059 and 060 prepared in DMSO were individually incubated at 37°C in mouse and pooled human liver microsomes (0.4 mg/mL). An aliquot was removed at 0 min and quenched with ice cold acetonitrile containing the internal standard carbamazepine (0.1 μM). The cofactor NADPH was added, and the reactions were subsequently stopped at time points 5, 10, 30, and 60 min by removal of an aliquot and quenching with ice cold acetonitrile containing the internal standard. The supernatant of all samples were analysed via LC-MS/MS analysis (reverse phase Gemini NX-C18 column and Shimadzu HPLC and AB Sciex 3200 Q TRAP MS). Calculation of in vitro t1/2, intrinsic clearance rate (CLint) and predicted in vivo clearance (CLH) was carried out using the following equations ([Obach 1999]). CLintClint= 0.693/t1/2(min) ×Volume of incubation (μL)/microsomal protein (μg) Where t1/2 is calculated in minutes.
Predicted in vivo CLH CLH=Q × fu(plasma)×CLint/fu(mic)/Q+ fu(plasma)× CLint/fu(mic) Where Q is the hepatic blood flow of mouse (90 mL/min/kg) or human (20.7 mL/min/kg). Fu(plasma) is the unbound drug fraction in the plasma and fu(mic) is the unbound fraction in the microsomes.
The equation below was used in the case of RMB059 and -060, where protein-binding data were not available. CLH=Q × CLint/Q+ CLint
A general note: Microsomes from liver hold many membrane-bound enzymes, among them those of drug oxidation.

The nature of data set [2]: Non-specific liver microsomal binding, MLM. Type of data set: in vitro ADME. Conditions: mouse liver microsomes. As for the experimental part:
Plasma protein binding was determined in pooled human plasma using an ultracentrifugation method. Stock solutions of test compounds were diluted in phosphate buffer and spiked into plasma in deep well 96-well plates. An aliquot of each compound was immediately precipitated with ice cold acetonitrile containing the internal standard carbamazepine (0.1 μM). These served as total concentration samples. After incubation in a water bath (37°C for 1 h), samples were transferred to ultracentrifuge tubes in duplicate and centrifuged for 4 h at 37°C and 30,000 g (Optima L-80XP, Beckman). Following centrifugation, the supernatant was transferred to the plate containing the total concentration samples and precipitated with ice cold acetonitrile containing the internal standard. Samples were analysed by LC-MS/MS (Shimadzu HPLC coupled with an AB Sciex 3200 Q TRAP MS). Non-specific binding in mouse liver microsomes (MLM) and human liver microsomes (HLM) were also determined with the ultracentrifugation method. Stock solutions of compounds (10 mM) were added in duplicate to microsome solution (0.5 mg/mL) in phosphate buffer (pH 7.4) to obtain a final drug concentration of 1 μM. The same method as for plasma protein binding was utilized. Analyte concentrations of all compounds were determined via LC-MS/MS (reverse phase Gemini NX-C18 column and Shimadzu HPLC coupled with an AB Sciex 3200 Q TRAP MS).

The nature of data set [3]: In vivo pharmacokinetics, intravenous administration. Set-up: species or system C57BL/6 mice. Conditions: C57BL/6, mouse, iv, mice, whole blood, dosed compound measured. How it is done:
Healthy C57BL/6 mice each weighing approximately 25 g were maintained at the University of Cape Town animal facility. Mice were housed in 27 × 21 × 28 cm cages (n = 3) under controlled environmental conditions at 22 ± 2°C, humidity of 55 ± 15% and a 12-hour light/dark cycle. Food and water were available ad libitum. Mice were acclimatised to the experimental environment for 4–5 days prior to initiating the experiments. […] The total volume of administration was 80 μL. Blood samples were collected post-dose in lithium heparin microvials via tail bleeding at predetermined intervals at 0.16, 0.5, 1, 3, 5, 8, 10, and 24 h. Samples were gently vortexed and stored at −80°C until analysis. A quantitative LC-MS/MS assay was used to determine whole-blood concentrations of RMB005, −059 and −060. Whole blood samples (20 μL) were treated with 100 μL ice cold acetonitrile containing the compound RMB073 used previously for determination of whole blood concentrations in analysis of TB-active compounds, as internal standard (200 ng/ml) ([Tanner et al., 2019]). The mixture was vortexed vigorously for 1 min, and 5 µL of the supernatant were injected onto the analytical column following centrifugation (5,590 g for 5 min). Gradient elution was carried out using a Gemini NX-C18 analytical column (5 μm, 2.1 mm × 50 mm). The aqueous mobile phase consisted of 5 mm ammonium acetate with 0.1% acetic acid in deionised water, while the organic phase consisted of 0.1% acetic acid in acetonitrile. A Shimadzu HPLC and reverse phase Gemini NX-C18 column coupled to an AB Sciex 3200 Q TRAP MS was operated at unit resolution in the multiple reaction monitoring (MRM) mode. […] The calibration standards ranged from 2 ng/mL to 3,000 ng/mL for RMB005, and 2 ng/mL to 4,000 ng/mL for RMB059, −060 and DQ. Drug concentration versus time plots for each compound were used to determine maximal drug concentration C max, time T max to reach C max, elimination half-life t 1/2 and the area under the concentration-time curve from time zero to infinity, AUC0-inf. From these values the following PK parameters—clearance CL, volume of distribution (Vd) and oral bioavailability (BA) were determined using the non-compartmental analysis Microsoft Excel Add-In PKSolver ([Zhang et al., 2010]).

Data set [4] is described as follows: Lipophilicity, 1-octanol/phosphate buffer pH 7.4 (LogD7.4). Type of data set: physicochemical. As for the experimental part:
Stock solutions ([…]) of compounds were diluted to 100 μM in 96-well deep-well plate containing 1-octanol and phosphate buffer at pH 7.4. The plate was agitated on an orbital shaker at 750 rpm for 2 h. The organic and buffer layers of each well were transferred separately to a new analysis plate. The samples were analysed with the HPLC-diode array detection as described for kinetic solubility. Samples from both layers were analysed to determine LogD7.4 values.

The source of these data is article PMC9450014, “The evaluation of ADME and pharmacokinetic properties of decoquinate derivatives for the treatment of malaria” (Frontiers in Pharmacology, 2022).

As a reminder, the half-life is the time in which the quantity being followed falls by half. What is called Vd is the apparent volume that relates the amount in the body to the concentration in plasma or blood. Read a low Vd as little distribution into tissue. By clearance is commonly meant a measure of how efficiently the substance is removed, as volume per time. Lower therefore signals a low capacity for elimination. For orientation: logD means the decadic logarithm of the distribution of all forms, ionised or not, between an organic phase and buffer at a given pH. Read a high logD as a more lipophilic compound. Consider `CCCCCCCCCCOc1cc2c(=O)c(C(=O)NCCOCCO)c[nH]c2cc1OCC` [RMB005], for which the CLint scaled in data set [1] (human, pooled liver microsomes, calculated from t1/2 in HLM, read-out: In vitro CLint HLM) is 4 mL/min/kg. Moreover, the half-life in data set [1] (pooled liver microsomes, human liver microsomes, NADPH, read-out: Degradation half-life HLM) was greater than 2.5 h. Also, the “Estimated in vivo CLH HLM” value in data set [1] (protein binding data included) was 12.6 mL/min/kg. In data set [2], this compound had a Bound to microsomes of 99%. In data set [3] (5 mg/kg per table footnote), this compound showed a Vd of 6.59 ± 1.83 L/kg and a clearance of 28.5 ± 2.17 mL/min/kg. In data set [3] (5 mg/kg per table footnote (10 mg/kg per method)), this compound gave a half-life of 2.62 ± 0.61 h. In data set [4], the logD at 2 h came out at 3.2.
